Reference: the supplement of paper PMC10307832

These cell lines were tested with Cc1cc([C@@H](C)Nc2ccccc2C(=O)O)c2nc(N3CCOCC3)cc(=O)n2c1 [AZD6482] + C[C@@H](Oc1cc(-c2cnn(C3CCNCC3)c2)cnc1N)c1c(Cl)ccc(F)c1Cl [Crizotinib] (partner 1 µM) (assay: relative viability (nuclei count vs DMSO), 5 days (fraction); higher = more cells survive). Details: first compound 0.08 µM.
Outline: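 Cells from lung cancer lines were seeded into 1536-well plates and, one day later, dosed by pin tool. Treatments were either a single drug or a fixed dose of an anchor drug with five library-drug doses (not always all listed) in √10 steps. After 5 days, nuclei were stained in a one-step fixation (final 0.05% Triton X-100, 1% formaldehyde, 1 ug/ml Hoechst) and counted on 4× images, and relative viability is the treated-to-vehicle nuclei ratio, as the median of duplicate plates.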

Cell Line	relative viability
NCI-H1437	0.921
NCI-H1755	0.717
NCI-H2023	0.535
HCC-15	0.755
PC-14	0.826
EKVX	0.855
LC-2-ad	0.434
NCI-H1975	0.841
RERF-LC-KJ	0.745
NCI-H650	0.635
PC-3 [JPC-3]	0.926

Same assay, conditions: first compound 0.253 µM

Cell Line	relative viability
HCC-78	0.322
NCI-H322M	0.826
LCLC-97TM1	0.327
NCI-H2009	1.03
A-427	0.858
NCI-H441	0.689
NCI-H661	1.03
NCI-H1734	0.733
NCI-H460	0.644
NCI-H2347	0.609
SK-LU-1	0.908
201T	0.991
NCI-H1915	0.8
HCC-827	0.958
LXF-289	0.837
NCI-H23	0.426
NCI-H1651	0.857
NCI-H1792	0.828
NCI-H1355	0.959
NCI-H3122	0.285
NCI-H1437	0.949
NCI-H1755	0.769
NCI-H2023	0.615
HCC-15	0.729
PC-14	0.896
EKVX	0.939
NCI-H1975	0.908
RERF-LC-KJ	0.776
PC-3 [JPC-3]	0.988

Same assay, conditions: first compound 0.8 µM

Cell Line	relative viability
HCC-78	0.245
NCI-H322M	0.79
LCLC-97TM1	0.298
NCI-H2009	1.05
A-427	0.788
NCI-H441	0.782
NCI-H661	1.02
NCI-H1734	0.622
NCI-H460	0.99
NCI-H2347	0.581
SK-LU-1	0.931
201T	1.09
NCI-H1915	0.935
HCC-827	0.936
LXF-289	0.898
NCI-H23	0.481
NCI-H647	0.748

Cell Line	relative viability
NCI-H1651	0.874
EPLC-272H	0.835
NCI-H1792	0.983
NCI-H1355	1.07
NCI-H3122	0.27
NCI-H1437	1.02
NCI-H1755	0.704
NCI-H2023	0.509
HCC-15	0.763
PC-14	0.904
EKVX	0.788
LC-2-ad	0.476
NCI-H1975	1.03
RERF-LC-KJ	0.832
NCI-H650	0.786
PC-3 [JPC-3]	0.952

Same assay, conditions: first compound 2.53 µM

Cell Line	relative viability
HCC-78	0.227
NCI-H322M	0.627
LCLC-97TM1	0.294
NCI-H2009	0.693
A-427	0.732
NCI-H441	0.443
NCI-H1734	0.47
NCI-H460	0.6
NCI-H2347	0.425
SK-LU-1	0.696
201T	0.944
NCI-H1915	0.838
HCC-827	0.885
LXF-289	0.794
NCI-H23	0.369
NCI-H647	0.479

Cell Line	relative viability
NCI-H1651	0.835
EPLC-272H	0.649
NCI-H1792	0.717
NCI-H1355	0.797
NCI-H3122	0.212
NCI-H1437	0.788
NCI-H1755	0.545
NCI-H2023	0.411
HCC-15	0.699
PC-14	0.783
EKVX	0.537
LC-2-ad	0.404
NCI-H1975	0.737
RERF-LC-KJ	0.818
NCI-H650	0.442
PC-3 [JPC-3]	0.862

Same assay, conditions: first compound 8 µM

Cell Line	relative viability
HCC-78	0.235
NCI-H322M	0.741
LCLC-97TM1	0.234
NCI-H2009	0.813
A-427	0.962
NCI-H441	0.507
NCI-H661	0.971
NCI-H1734	0.471
NCI-H460	0.471
NCI-H2347	0.498
SK-LU-1	0.886
201T	1.04
NCI-H1915	0.863
HCC-827	0.63
LXF-289	0.736
NCI-H23	0.417
NCI-H647	0.648

Cell Line	relative viability
NCI-H1651	0.729
EPLC-272H	0.584
NCI-H1792	0.444
NCI-H1355	0.726
NCI-H3122	0.25
NCI-H1437	0.872
NCI-H1755	0.487
NCI-H2023	0.494
HCC-15	0.869
PC-14	0.876
EKVX	0.584
LC-2-ad	0.367
NCI-H1975	0.764
RERF-LC-KJ	0.676
NCI-H650	0.47
PC-3 [JPC-3]	1.02
